The record followed here is ChEMBL document CHEMBL1135002, “Optimization of a pyrazolo[1,5-a]pyrimidine class of KDR kinase inhibitors: improvements in physical properties enhance cellular activity and pharmacokinetics” (Bioorg Med Chem Lett, 2002).

The structures appear in SMILES notation. A value given as a limit tells only on which side of the number the result lay.

Vascular endothelial growth factor receptor 2, sequence (P35968 whole entry): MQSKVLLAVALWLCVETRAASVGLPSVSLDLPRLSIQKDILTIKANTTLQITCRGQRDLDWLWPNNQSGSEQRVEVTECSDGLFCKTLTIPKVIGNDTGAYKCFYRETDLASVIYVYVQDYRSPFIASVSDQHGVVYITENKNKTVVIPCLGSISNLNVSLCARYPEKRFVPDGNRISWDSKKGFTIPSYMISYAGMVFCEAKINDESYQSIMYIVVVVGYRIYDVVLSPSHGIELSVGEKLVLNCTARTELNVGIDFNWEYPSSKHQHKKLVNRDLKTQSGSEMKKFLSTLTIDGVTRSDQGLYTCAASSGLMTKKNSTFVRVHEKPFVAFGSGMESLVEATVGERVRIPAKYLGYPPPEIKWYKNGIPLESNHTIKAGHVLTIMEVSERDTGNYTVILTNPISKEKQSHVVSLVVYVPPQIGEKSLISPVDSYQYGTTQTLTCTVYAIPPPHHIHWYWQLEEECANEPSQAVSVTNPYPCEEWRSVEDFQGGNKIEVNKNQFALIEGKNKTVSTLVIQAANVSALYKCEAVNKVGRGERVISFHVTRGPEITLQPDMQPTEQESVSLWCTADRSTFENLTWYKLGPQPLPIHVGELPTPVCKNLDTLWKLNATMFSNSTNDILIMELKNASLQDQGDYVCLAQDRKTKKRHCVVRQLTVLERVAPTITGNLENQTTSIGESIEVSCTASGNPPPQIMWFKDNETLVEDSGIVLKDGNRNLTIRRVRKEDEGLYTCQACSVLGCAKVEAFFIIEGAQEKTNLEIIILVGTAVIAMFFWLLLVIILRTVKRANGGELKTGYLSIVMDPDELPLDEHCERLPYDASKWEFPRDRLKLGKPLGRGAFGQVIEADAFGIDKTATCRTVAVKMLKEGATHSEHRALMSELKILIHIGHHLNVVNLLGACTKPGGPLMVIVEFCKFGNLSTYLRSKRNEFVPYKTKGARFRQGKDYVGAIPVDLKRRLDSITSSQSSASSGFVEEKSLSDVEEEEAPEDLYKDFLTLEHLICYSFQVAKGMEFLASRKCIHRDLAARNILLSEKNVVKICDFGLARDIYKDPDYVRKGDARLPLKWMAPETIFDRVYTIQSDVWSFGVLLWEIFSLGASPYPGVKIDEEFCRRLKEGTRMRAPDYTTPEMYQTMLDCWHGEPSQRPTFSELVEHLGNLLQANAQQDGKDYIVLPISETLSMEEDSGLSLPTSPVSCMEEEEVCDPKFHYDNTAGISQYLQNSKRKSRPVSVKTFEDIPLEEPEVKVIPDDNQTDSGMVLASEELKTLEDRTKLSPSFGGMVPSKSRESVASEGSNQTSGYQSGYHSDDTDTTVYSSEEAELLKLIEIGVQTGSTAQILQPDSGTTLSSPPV

Test system in one series: not listed separately
Briefly: The pharmacokinetic parameter volume of distribution in vivo in rats. Type of series: ADME, organism-based. Conditions: rat, read-out: Vdss.
Turning to `c1cncc(-c2cnn3cc(-c4ccc(OCCN5CCCCC5)cc4)cnc23)c1`, the Vd is 6 L/kg.

Take `CN1CCN(CCCn2ccc(-c3cnc4c(-c5ccsc5)cnn4c3)cc2=O)CC1`: the Vd amounted to 7.9 L/kg.

Turning to `c1cc(-c2cnn3cc(-c4ccc(OCCN5CCCCC5)cc4)cnc23)cs1` [L-21649], the Vd is 16 L/kg.

Test system in another series: not listed separately
Briefly: The pharmacokinetic parameter plasma clearance in vivo in rats. The format is ADME, organism-based. The conditions noted are these: rat, read-out: CI.
Regarding `c1cncc(-c2cnn3cc(-c4ccc(OCCN5CCCCC5)cc4)cnc23)c1`, the clearance is 23 mL/min/kg.

Test system in a further series: not listed separately
Briefly: The pharmacokinetic parameter half-life period in vivo in rats. The format is ADME, organism-based. Conditions: rat.
The term half-life denotes the time needed for the level to fall by half in the phase considered. A high value points to slow loss. For the molecule `c1cncc(-c2cnn3cc(-c4ccc(OCCN5CCCCC5)cc4)cnc23)c1`, the half-life was 3.3 h.

In the case of `CN1CCN(CCCn2ccc(-c3cnc4c(-c5ccsc5)cnn4c3)cc2=O)CC1`, the half-life was 3.4 h.

`c1cc(-c2cnn3cc(-c4ccc(OCCN5CCCCC5)cc4)cnc23)cs1` [L-21649]: the half-life is 5.1 h.

Test system in a further series: not listed separately
Kind of series: Partition coefficient (logP). Type of series: physicochemical. Conditions: octanol/water.
Usually logP stands for the decadic logarithm of the partition coefficient of the neutral form, usually between octanol and water. A low value points to a more hydrophilic compound. `O=c1cc(-c2cnc3c(-c4ccccc4)cnn3c2)ccn1CCCN1CCCCC1` gave a logP of 2.4.

`CN1CCN(CCCn2ccc(-c3cnc4c(-c5ccccc5)cnn4c3)cc2=O)CC1` gave a logP of 2.

`CN1CCN(CCCn2ccc(-c3cnc4c(-c5ccsc5)cnn4c3)cc2=O)CC1` gave a logP of 1.6.

As for `COc1ccc(-c2cnc3c(-c4ccsc4)cnn3c2)cc1`, the logP was > 4.

Regarding `c1cc(-c2cnn3cc(-c4ccc(OCCN5CCCCC5)cc4)cnc23)cs1` [L-21649], the log partition coefficient (logP) was > 4.

Test system in another series: not listed separately
Briefly: Bioavailability in rat. Type of series: ADME, organism-based. The conditions noted are these: in vivo.
The bioavailability is the share of a dose that reaches the circulation, judged against a reference dose that is usually intravenous. A lower bioavailability goes with little systemic uptake. In the case of `c1cncc(-c2cnn3cc(-c4ccc(OCCN5CCCCC5)cc4)cnc23)c1`, the bioavailability is 42%.

On to `CN1CCN(CCCn2ccc(-c3cnc4c(-c5ccsc5)cnn4c3)cc2=O)CC1`, for which the bioavailability is 56%.

`c1cc(-c2cnn3cc(-c4ccc(OCCN5CCCCC5)cc4)cnc23)cs1` [L-21649] registered a bioavailability of 18%.

The next series has as its target Vascular endothelial growth factor receptor 2 (Homo sapiens, UniProt P35968).
Settings: not given
For orientation: IC50 means the concentration that gives 50% inhibition. The molecule `c1cncc(-c2cnn3cc(-c4ccc(OCCN5CCCCC5)cc4)cnc23)c1` had a half-maximal inhibitory concentration (IC50) of 20 nM. That is a double-digit nanomolar value.

The molecule `c1ccc(-c2cnn3cc(-c4ccc(OCCN5CCOCC5)cc4)cnc23)cc1` displayed a 50% inhibitory concentration (IC50) of 9 nM.

The target in a further series is Vascular endothelial growth factor receptor (Homo sapiens, UniProt P17948+P35916+P35968). The conditions noted are these: endothelial cell.
Description: Inhibition of VEGF-stimulated mitogenesis in endothelial cells
For `c1cncc(-c2cnn3cc(-c4ccc(OCCN5CCCCC5)cc4)cnc23)c1`, the half-inhibitory concentration (IC50) came out at 29 nM.

`c1cc(-c2cnn3cc(-c4ccc(OCCN5CCOCC5)cc4)cnc23)ccn1` had an IC50 of 31 nM. This IC50 and that of the molecule before are within 1.5-fold of each other.

`COc1ccc(-c2cnc3c(-c4ccncc4)cnn3c2)cc1` had an IC50 of 150 nM. This IC50 lies about 4.8-fold higher than the previous one.

On to `c1ccc(-c2cnn3cc(-c4ccc(OCCN5CCOCC5)cc4)cnc23)cc1`, for which the half-inhibitory concentration (IC50) came out at 32 nM.
